Literature values as cited in US12504433B2, “Methods, systems and kits for in-pen assays” (BRUKER CELLULAR ANALYSIS, INC., priority 2020, dated 2025).

Experiments:
[1] = test system: Fc of hIgG; settings: read-out: Affinity for IgG
[2] = biological target: IgG

5′-rGp-rGp-rAp-rGp-rGp-fUp-fCp-fCp-rGp-rAp-rAp-rAp-rGp-rGp-rAp-fCp-fUp-fCp-fCp-3′ [CPD 5]
Kd [1]: 0.075 µM

CPD 1: Protein A-AF594, Pierce Recombinant Protein A (ThermoFisher Cat. # 77674)
Affinity for IgG ([2]; stated in words): nanomolar

DCAWHLGELVWCT [CPD 4, Asp Cys Ala Trp His Leu Gly Glu Leu Val Trp Cys Thr]
Kd ([2]; Fc, read-out: Affinity for IgG): 0.1 µM
